Key:
[1] = system: 14S.6.A hybridoma; assay: Plate-bound mCD1d fusion protein hybridoma stimulation assay (IL-2 ELISA); type: cell-based, mouse; conditions: 14S.6.A diverse TCR hybridoma; plate-bound mCD1d-IgGFc2a fusion protein preincubated with lipid antigen
In short: (§1)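 Protein A plates coated with 400-600 ng/well mCD1d fusion protein and loaded with lipid antigen (40:1 antigen:protein unless specified) in PBS pH 7.2 for 24-48 hr at 37° C, washed, then given 1×10^5 hybridoma cells/well for 16-20 hr at 37° C. Supernatant IL-2 quantified by sandwich ELISA against murine IL-2 standard curve (pg/ml).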

[2] = system: KT/12 hybridoma; assay: as above; type: cell-based, mouse; conditions: KT/12 NKT hybridoma; plate-bound mCD1d-IgGFc2a fusion protein preincubated with lipid antigen
In short: as §1

[3] = system: KT/22 hybridoma; assay: as above; type: cell-based, mouse; conditions: KT/22 NKT hybridoma; plate-bound mCD1d-IgGFc2a fusion protein preincubated with lipid antigen
In short: as §1

[4] = system: T cell lines and clones isolated from peripheral blood; assay: Functional analysis (cytokine secretion) of T cell lines and clones sorted with α-GalCer treated CD1d-Fc; type: cell-based, human; conditions: in the presence of antigen
Source text: T cell lines and clones stained with the α-GalCer treated CD1d-Fc aggregates were isolated from peripheral blood by flow cytometric cell sorting and limiting dilution cloning, and cultured using standard techniques. […] Cytokine secretion was enhanced in the presence of α-GalCer.

With β-galactosylceramide [β-GalCer] the IL-2 secretion [1] was 0 (A “0” indicates a mean of less than 50 pg/ml IL-2 was secreted), the IL-2 secretion [2] was 0 (A “0” indicates a mean of less than 50 pg/ml IL-2 was secreted) and the IL-2 secretion [3] was 0 (A “0” indicates a mean of less than 50 pg/ml IL-2 was secreted).
`CCCCCCCCCCCCCCCCCCCCCCCCCC(=O)N[C@@H](CO[C@H]1O[C@H](CO)[C@H](O)[C@H](O)[C@H]1O)[C@H](O)[C@H](O)CCCCCCCCCCCCCC` [α-GalCer, α-galactosylceramide] was tested, and the IL-2 secretion [1] was 0 (A “0” indicates a mean of less than 50 pg/ml IL-2 was secreted), the IL-2 secretion [2] was “+++ (“+++” indicates greater than 1000 pg/ml IL-2)” and the IL-2 secretion [3] was “+++ (“+++” indicates greater than 1000 pg/ml IL-2)”. The “cytokine secretion in response to CD1d-transfected antigen presenting cells” value [4] was “enhanced”.
unglycosylated ceramide was tested, and the IL-2 secretion [1] was 0 (A “0” indicates a mean of less than 50 pg/ml IL-2 was secreted), the IL-2 secretion [2] was 0 (A “0” indicates a mean of less than 50 pg/ml IL-2 was secreted) and the IL-2 secretion [3] was 0 (A “0” indicates a mean of less than 50 pg/ml IL-2 was secreted).
phosphatidylinositol [PI] was tested, and the IL-2 secretion [1] was “+ (“+” indicates 50-250 pg/ml)”, the IL-2 secretion [2] was “+ (“+” indicates 50-250 pg/ml)” and the IL-2 secretion [3] was “+ (“+” indicates 50-250 pg/ml)”.

Reference: US20020071842A1, “Soluble CD1 compositions and uses thereof” (priority 2000, published 2002)
